How the values were obtained:
[1] = tested on: cultured chick heart cells; test: Effect of MSA on Tc-MIBI net accumulation (FIG. 3); type: cell-based; conditions: TPB 10^-5 M, n=3
Method: FIG. 3. Effect of MSA on Tc-MIBI net accumulation. Preparations were incubated for the times indicated in Tc-MIBI loading buffer containing 5.4 mM KCl (.quadrature., .smallcircle.) or 5.4 mM K-MSA ( , ·; prepared by equimolar substitution of K-MSA KCl) in the absence (.quadrature., ) or presence (.smallcircle., ·) of TPB (10^-5 M). Each point represents the mean ±SEM of 3 determinations.
Control buffer was a modified Earle's balanced salt solution (MEBSS) with the following composition (mN) Na^30, 145; K^+, 5.4; Ca^2, 1.2; Mg^2+, 0.8; Cl, 152; H2 PO4, 0.8; SO4^2-, 0.8; dextrose, 5.6; HEPES, 4.0; and bovine calf serum, 1% (v/v); […]; 37° C. K-methanesulfonate was made by titration of methanesulfonic acid with KOH (Piwnica-Worms, D., et al., J. Gen. Physiol. 81:731-748 (1983)) and replaced […] in some solutions by equimolar substitution where indicated. Natetraphenylborate, CCCP, bumetanide and valinomycin were dissolved into DMSO prior to addition to buffer. DMSO alone has no significant affect on contractile activity, action potential configuration (Lieberman, M., et al., Dev. Biol. 31:380-403 (1973)) or Tc-MIBI uptake kinetics (Piwnica-Worms, D., et al., Circ. (in press)).
Monolayers of spontaneously contractile chick ventricular myocardial cells were obtained from disaggregated 10-day old chick embryo hearts by a slight modification of previously published methods (Horres, C. R., et al., In Pinson, A. (ed.), The Heart Cell in Culture, Boca Raton, CRC Press, pp. 77-108 (1987)). […] Cells were centrifuged at 400 g for 10 minutes, resuspended and combined in culture medium, counted with a hemocytometer and diluted to yield a suspension of 5×10^5 cells/ml. […]
Radioactive uptake methods have been described in detail (Piwnica-Worms, D., et al, Circ. (in press). Briefly, coverslips with confluent cells were removed from culture media and pre-equilibrated for 40-60 seconds in MEBSS buffer. Uptake and retention experiments were initiated by immersion of coverslips in 60 mm glass Pyrex dishes containing loading solution consisting of buffer with 0.1-0.6 nM [^99m Tc-MIBI] (0.01-0.4 Ci/nmole; 25-100 uCi/ml). Preparations were removed at various times and rinsed three times in 25 ml volumes of ice-cold (2° C.) isotope-free buffer for 8 seconds each to clear extracellular spaces. Preparations and aliquots of the loading buffer and stock solutions were counted in a well-type sodium iodide gamma counter after which cell protein on each coverslip was extracted in 1% sodium dodecylsulfate with 10 mM sodium borate and assayed by the method of Lowry (Lowry, O. H., et al., J. Biol. Chem. 193:265-275 (1951)). […]

[2] = diagnostic pharmaceutical; cited from earlier work
[3] = Effect of tetraphenylborate on the biodistribution of Tc-MIBI in rats (Table 2); type: in vivo; conditions: for Blood level / Heart uptake / Kidney uptake / Liver uptake / Lung uptake: 15 minutes; for tissue retention of Tc-MIBI, all tissues: 15 min
Method: The results are expressed as percent injected dose per gram of tissue. […] For this series of experiments, 50 microliters of dimethylsulfoxide lacking or containing 7.2 mM TPB were injected directly into the jugular vein of anesthetized rats immediately prior to the injection of Tc-MIBI (150 microliters; 100 microCuries per 200 microliters).
After 15 minutes, the animal was sacrificed by thoracotomy, organs extracted and placed in test tubes and counted for radioactivity in a standard well-type gamma counter. Tissue wet weights were obtained by subtracting fare weights from total weight of test tubes plus tissue.
Results are expressed as mean ±SEM of three determinations each.

In the case of `[C-]#[N+]CC(C)(C)OC.[C-]#[N+]CC(C)(C)OC.[C-]#[N+]CC(C)(C)OC.[C-]#[N+]CC(C)(C)OC.[C-]#[N+]CC(C)(C)OC.[C-]#[N+]CC(C)(C)OC.[Tc]` [Tc-MIBI, hexakis(methoxyisobutylisonitrile)technetium(I)], the Tc-MIBI uptake ([1]; 130 mM K-MSA buffer, P=0.01) is listed as 79.3±1.1 fmol Tc-MIBI/mg protein per nM, the Tc-MIBI uptake ([1]; 130 mM KCl buffer + bumetanide 10^-5 M) is listed as 63.7±3.2 fmol Tc-MIBI/mg protein per nM and the safety in humans [2] is listed as “shown to be safe in humans as a diagnostic pharmaceutical”. It also gave a Blood level ([3]; +TPB) of 0.06 ± 0.01 % ID/gm, a Heart uptake ([3]; +TPB) of 1.45 ± 0.11 % ID/gm and a Kidney uptake ([3]; +TPB) of 5.81 ± 0.74 % ID/gm. For the same compound, the Liver uptake ([3]; +TPB) was 0.76 ± 0.40 % ID/gm, the Lung uptake ([3]; +TPB) was 1.07 ± 0.15 % ID/gm and the “tissue retention of Tc-MIBI, all tissues” value ([3]; +TPB) was 9.15 % ID per gram of total tissue. The Blood level ([3]; -TPB) was 0.04 ± 0.01 % ID/gm, the Heart uptake ([3]; -TPB) was 1.92 ± 0.51 % ID/gm and the Kidney uptake ([3]; -TPB) was 3.38 ± 1.09 % ID/gm. The Liver uptake ([3]; -TPB) was 0.25 ± 0.15 % ID/gm, the Lung uptake ([3]; -TPB) was 0.45 ± 0.09 % ID/gm and the “tissue retention of Tc-MIBI, all tissues” value ([3]; -TPB) was 6.04 % ID per gram of total tissue.
